Results on three compounds are retold here after US9023789B2, “Amylin analogs and pharmaceutical compositions thereof” (Novo Nordisk A/S, priority 2012, dated 2015).

As a reminder, the IC50 is the concentration needed to halve the response being measured.

≈ marks a conversion by molar mass, not a printed value. Read-outs that look alike come from different tables or passages of the source. Numbered stars: 1 amine (or outer) side, 2 acyl side, 3 side chain; on linkers, the order of the positions; unused ones are H or OH. Bridge positions count the residues as written; N and C are the ends. Side chains are listed from the residue outwards. Peptide text beside a SMILES is read from it. * marks the point of attachment. C20 diacid = O=C(O)CCCCCCCCCCCCCCCCCCC(=O)*; γGlu = O=C(O)[C@H](CCC(=O)[*:2])N[*:1]

The nature of data set [1]: ASSAY (IV) determination of solubility. It counts as physicochemical. In outline: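 Polypeptide stock in water ([…]) was mixed 1:1 with 100 mM buffers: glycylglycine at pH 3.0, 4.0, 5.0 and bistrispropane at pH 6.0, 6.5, 7.0, 7.5, 8.0. After 18 hours at room temperature, samples were centrifuged and polypeptide concentration measured by UPLC.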
Data set [2] has as its target T1, rat amylin receptor (rat calcitonin receptor + rat RAMP 3) (Rattus norvegicus, UniProt P32214+Q9JJ73).
T1 construct: expressed in transfected cells; host or cells: BHK tk'ts 13 (transient, FuGENE 6), membranes
T1 sequence (P32214 25-479 isoform P32214-2 limits assumed): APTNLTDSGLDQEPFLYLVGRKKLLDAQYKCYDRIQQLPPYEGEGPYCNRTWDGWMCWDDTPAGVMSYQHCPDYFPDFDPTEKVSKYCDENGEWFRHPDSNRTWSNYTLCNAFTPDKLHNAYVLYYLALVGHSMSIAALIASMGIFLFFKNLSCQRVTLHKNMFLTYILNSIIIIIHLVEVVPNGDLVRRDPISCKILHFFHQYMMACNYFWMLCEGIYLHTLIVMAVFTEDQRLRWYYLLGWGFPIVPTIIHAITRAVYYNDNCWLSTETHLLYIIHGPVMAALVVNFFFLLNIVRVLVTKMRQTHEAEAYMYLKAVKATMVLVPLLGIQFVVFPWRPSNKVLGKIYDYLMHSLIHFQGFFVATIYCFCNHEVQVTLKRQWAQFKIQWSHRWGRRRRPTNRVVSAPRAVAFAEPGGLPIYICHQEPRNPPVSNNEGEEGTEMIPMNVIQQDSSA
T1 sequence (Q9JJ73 23-147 partner): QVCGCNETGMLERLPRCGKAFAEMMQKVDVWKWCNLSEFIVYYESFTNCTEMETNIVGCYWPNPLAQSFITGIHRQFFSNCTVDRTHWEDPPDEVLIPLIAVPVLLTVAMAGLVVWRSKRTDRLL
Briefly: ASSAY (VI) binding to the rat amylin receptor. Conditions: for IC50: binding to rat amylin receptor, read-out: rAmylin-R bind IC50. In outline: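 This assay measured binding to the rat amylin receptor. BHK tk′ts 13 cells were transiently transfected with the rat calcitonin receptor using FuGENE® 6 (Roche), following the manufacturer's recommendations. About 48 hours after transfection, the cells were harvested and membranes were prepared from them for the binding determination.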

A short description of data set [3]: ASSAY (III) ThT fibrillation assay for physical stability. It counts as physicochemical. In outline: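 Formulations with 1 μM ThT, pH adjusted as required, incubated at 37 °C with 960 rpm orbital shaking; fluorescence (ex 444/em 485 nm) read every 20 min. Fibrillation reported as mean ThT fluorescence ± SD of 4–8 replicates at time points; polypeptide concentration measured by reverse-phase HPLC before and after, post-centrifugation.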

The mark [4] stands for this setting: bistrispropane buffer, pH 6.5, read-out: Solubility pH 6.5 Concentration.
The mark [5] stands for this setting: bistrispropane buffer, pH 7.5, read-out: Solubility pH 7.5 Concentration.
Where [6] appears, read: bistrispropane buffer, pH 6.0, read-out: Solubility pH 6.0 Concentration.
[7] abbreviates: bistrispropane buffer, pH 7.0, read-out: Solubility pH 7.0 Concentration.
The mark [8] stands for this setting: bistrispropane buffer, pH 8.0, read-out: Solubility pH 8.0 Concentration.
The mark [9] stands for this setting: glycylglycine buffer, pH 3.0, read-out: Solubility pH 3.0 Concentration.
Where [10] appears, read: glycylglycine buffer, pH 4.0, read-out: Solubility pH 4.0 Concentration.
The mark [11] stands for this setting: glycylglycine buffer, pH 5.0, read-out: Solubility pH 5.0 Concentration.
The mark [12] stands for this setting: Table 7, rat binding selectivity, rCTR IC50 / rAmylin-R IC50.
[13] abbreviates: Table 7a (preferred compounds), rat binding selectivity, rCTR IC50 / rAmylin-R IC50.
Where [14] appears, read: ratio of rCTR bind IC50 to rAmylin-R bind IC50.

For the compound `CC[C@H](C)[C@H](NC(=O)[C@H](C)NC(=O)CNC(=O)[C@H](Cc1ccccc1)NC(=O)[C@H](CC(N)=O)NC(=O)[C@@H]1CCCN1C(=O)[C@H](CO)NC(=O)[C@H](CO)NC(=O)[C@H](Cc1c[nH]cn1)NC(=O)[C@H](CCCNC(=N)N)NC(=O)[C@H](CC(C)C)NC(=O)[C@H](Cc1ccccc1)NC(=O)[C@H](CC(N)=O)NC(=O)[C@H](C)NC(=O)[C@H](CC(C)C)NC(=O)[C@H](CCCNC(=N)N)NC(=O)[C@H](CCC(N)=O)NC(=O)[C@@H](NC(=O)[C@H](C)NC(=O)[C@@H]1CSSC[C@H](NC(=O)[C@@H](N)CCCCNC(=O)CC[C@H](NC(=O)CC[C@H](NC(=O)CCCCCCCCCCCCCCCCCCC(=O)O)C(=O)O)C(=O)O)C(=O)N[C@@H](CC(N)=O)C(=O)N[C@@H]([C@@H](C)O)C(=O)N[C@@H](C)C(=O)N[C@@H]([C@@H](C)O)C(=O)N1)[C@@H](C)O)C(=O)N1CCC[C@H]1C(=O)N[C@@H](CO)C(=O)N[C@@H](CO)C(=O)N[C@H](C(=O)N1CCC[C@H]1C(=O)N[C@H](C(=O)NCC(=O)N1CCC[C@H]1C(=O)N[C@@H](CCCNC(=N)N)C(=O)N[C@H](C(=O)N[C@@H](Cc1ccc(O)cc1)C(N)=O)[C@@H](C)O)C(C)C)[C@@H](C)O` [Example 119] (H-K([γGlu-γGlu-C20 diacid])CNTATCATQRLANFLRHSSPNFGAIPSSTPVGPRTY-NH2; disulfide 2-7), the solubility at 18 h in data set [1] (setting [4]) was 174 µM (≈ 791 µg/mL); in data set [1] (setting [5]), 112 µM (≈ 509 µg/mL); in data set [1] (setting [6]), at least 200 µM; in data set [1] (setting [7]), 182 µM (≈ 827 µg/mL); in data set [1] (setting [8]), 32 µM (≈ 145 µg/mL); in data set [1] (setting [9]), 174 µM (≈ 791 µg/mL). Further, the solubility at 18 h in data set [1] (setting [10]) and in data set [1] (setting [11]) was at least 200 µM in each case. Moreover, in data set [2] (Table 7), the IC50 stood at 0.381 nM. Besides, the “Ratio rCT/rAmylin binding” value in data set [2] (setting [12]), in data set [2] (setting [13]) and in data set [2] (setting [14]) was 137.4 each time. For the same compound, the “ThT pH 4.0 lag time (h)” value in data set [3] is 10 h.

`CC[C@H](C)[C@H](NC(=O)[C@H](C)NC(=O)CNC(=O)[C@H](Cc1ccccc1)NC(=O)[C@H](CC(N)=O)NC(=O)[C@@H]1CCCN1C(=O)[C@H](CO)NC(=O)[C@H](CO)NC(=O)[C@H](Cc1c[nH]cn1)NC(=O)[C@H](CCCNC(=N)N)NC(=O)[C@H](CC(C)C)NC(=O)[C@H](Cc1ccccc1)NC(=O)[C@H](CO)NC(=O)[C@H](C)NC(=O)[C@H](CC(C)C)NC(=O)[C@H](CCCNC(=N)N)NC(=O)[C@H](CCC(N)=O)NC(=O)[C@@H](NC(=O)[C@H](C)NC(=O)[C@@H]1CSSC[C@H](NC(=O)[C@@H](N)CCCCNC(=O)CC[C@H](NC(=O)CC[C@H](NC(=O)CCCCCCCCCCCCCCCCCCC(=O)O)C(=O)O)C(=O)O)C(=O)N[C@@H](CC(N)=O)C(=O)N[C@@H]([C@@H](C)O)C(=O)N[C@@H](C)C(=O)N[C@@H]([C@@H](C)O)C(=O)N1)[C@@H](C)O)C(=O)N1CCC[C@H]1C(=O)N[C@@H](CO)C(=O)N[C@@H](CO)C(=O)N[C@H](C(=O)N[C@@H](CC(N)=O)C(=O)N[C@H](C(=O)NCC(=O)N1CCC[C@H]1C(=O)N[C@@H](CCC(=O)O)C(=O)N[C@H](C(=O)N[C@@H](Cc1ccc(O)cc1)C(N)=O)[C@@H](C)O)C(C)C)[C@@H](C)O` [Example 120] (H-K([γGlu-γGlu-C20 diacid])CNTATCATQRLASFLRHSSPNFGAIPSSTNVGPETY-NH2; disulfide 2-7 (inferred); N-terminus assumed): the solubility at 18 h in data set [1] (setting [4]), in data set [1] (setting [5]), in data set [1] (setting [6]), in data set [1] (setting [7]), in data set [1] (setting [8]) and in data set [1] (setting [9]) was at least 200 µM each time. Further, the solubility at 18 h in data set [1] (setting [10]) and in data set [1] (setting [11]) was at least 200 µM throughout. Further, the IC50 in data set [2] (Table 7) was determined as 0.161 nM. Also, the “Ratio rCT/rAmylin binding” value in data set [2] (setting [12]), in data set [2] (setting [13]) and in data set [2] (setting [14]) was 867.7 each time. The “ThT pH 4.0 lag time (h)” value in data set [3] came to 14 h.

As to `CC[C@H](C)[C@H](NC(=O)[C@H](C)NC(=O)CNC(=O)[C@H](Cc1ccccc1)NC(=O)[C@H](CC(N)=O)NC(=O)[C@@H]1CCCN1C(=O)[C@H](CO)NC(=O)[C@H](CO)NC(=O)[C@H](Cc1c[nH]cn1)NC(=O)[C@H](CCCNC(=N)N)NC(=O)[C@H](CC(C)C)NC(=O)[C@H](Cc1ccccc1)NC(=O)[C@H](CC(=O)O)NC(=O)[C@H](C)NC(=O)[C@H](CC(C)C)NC(=O)[C@H](CCCNC(=N)N)NC(=O)[C@H](CCC(N)=O)NC(=O)[C@@H](NC(=O)[C@H](C)NC(=O)[C@@H]1CSSC[C@H](NC(=O)[C@@H](N)CCCCNC(=O)CC[C@H](NC(=O)CC[C@H](NC(=O)CCCCCCCCCCCCCCCCCCC(=O)O)C(=O)O)C(=O)O)C(=O)N[C@@H](CC(N)=O)C(=O)N[C@@H]([C@@H](C)O)C(=O)N[C@@H](C)C(=O)N[C@@H]([C@@H](C)O)C(=O)N1)[C@@H](C)O)C(=O)N1CCC[C@H]1C(=O)N[C@@H](CO)C(=O)N[C@@H](CO)C(=O)N[C@H](C(=O)N[C@@H](CC(N)=O)C(=O)N[C@H](C(=O)NCC(=O)N1CCC[C@H]1C(=O)N[C@@H](CCC(=O)O)C(=O)N[C@H](C(=O)N[C@@H](Cc1ccc(O)cc1)C(N)=O)[C@@H](C)O)C(C)C)[C@@H](C)O` [Example 122] (H-K([γGlu-γGlu-C20 diacid])CNTATCATQRLADFLRHSSPNFGAIPSSTNVGPETY-NH2; disulfide 2-7 (inferred); N-terminus assumed), the solubility at 18 h in data set [1] (setting [4]), in data set [1] (setting [5]), in data set [1] (setting [6]), in data set [1] (setting [7]), in data set [1] (setting [8]) and in data set [1] (setting [9]) was at least 200 µM each time. The solubility at 18 h in data set [1] (setting [10]) and in data set [1] (setting [11]) was at least 200 µM each time. For the same compound, in data set [2] (Table 7), the IC50 amounted to 0.324 nM. Moreover, the “Ratio rCT/rAmylin binding” value in data set [2] (setting [12]), in data set [2] (setting [13]) and in data set [2] (setting [14]) was 98.5 in each case. Further, in data set [3], the “ThT pH 4.0 lag time (h)” value is recorded as 45 h.
